According to patent US10087165B2, “Fluoroquinolones and use thereof to treat bacterial infections” (UNIVERSITÉ PIERRE ET MARIE CURIE—PARIS 6 (UPMC), priority 2014, dated 2018):
Values after ≈ are worked out from the molar mass of the structure shown. Read-outs that look alike come from different tables or passages of the source.

Assays:
[1] = tested on: multidrug-resistant M. tuberculosis clinical strain GV1503014223; test: microbe, parasite or virus in culture; format: cell-based; settings: Mycobacterium tuberculosis; MDR clinical strain; Table 3
[2] = tested on: M. tuberculosis H37Rv GyrA A90V; format: cell-based
[3] = tested on: M. tuberculosis H37Rv GyrB D500N; format: cell-based
[4] = tested on: multidrug-resistant M. tuberculosis clinical strain KC1503006247; test: microbe, parasite or virus in culture; format: cell-based; settings: Mycobacterium tuberculosis; MDR clinical strain; Table 3
[5] = tested on: quinolone-resistant M. tuberculosis strains (GyrB D500N, GyrA D94G and GyrA A90V strains); format: cell-based
[6] = tested on: multidrug-resistant M. tuberculosis clinical strain XCC1503082245; test: microbe, parasite or virus in culture; format: cell-based; settings: Mycobacterium tuberculosis; MDR clinical strain; Table 3
[7] = tested on: M. tuberculosis H37Rv GyrA D94G; format: cell-based
[8] = tested on: M. tuberculosis H37Rv GyrA A90V; settings: Table 2, published previously (Poissy et al. 2010); cited from earlier work
[9] = tested on: M. tuberculosis H37Rv GyrA D94G; settings: Table 2, published previously (Poissy et al. 2010); cited from earlier work

| Compound | MIC [1] [µM] | MIC (M. tuberculosis) A90V [2] [µM] | MIC M. tuberculosis H37Rv GyrA A90V [2] [µM] | MIC M. tuberculosis H37Rv GyrB D500N [3] [µM] | MIC [4] [µM] | antibacterial activity against quinolone-resistant M. tuberculosis strains (in words) [5] | MIC [6] [µM] | MIC (M. tuberculosis) D94G [7] [µM] | MIC M. tuberculosis H37Rv GyrA D94G [7] [µM] | MIC (M. tuberculosis) A90V [8] [µM] | MIC (M. tuberculosis) D94G [9] [µM] |
| --- | --- | --- | --- | --- | --- | --- | --- | --- | --- | --- | --- |
| CCCCCCCCN1CCN(c2c(F)cc3c(=O)c(C(=O)O)cn(C4CC4)c3c2OC)CC1 [Quin 18, 1-cyclopropyl-6-fluoro-8-methoxy-7-(4-octylpiperazin-1-yl)-4-oxo-1,4-dihydroquinoline-3-carboxylic acid] | < 0.12 | 0.5 (≈ 0.237 µg/mL) | 2 (≈ 0.947 µg/mL) | <0.12 | < 0.12 | high antibacterial activity | 0.12 (≈ 0.0568 µg/mL) | 2 (≈ 0.947 µg/mL) | 2 (≈ 0.947 µg/mL) | – | – |
| CCCCCCCCCCN1CCN(c2cc3c(cc2F)c(=O)c(C(=O)O)cn3C2CC2)CC1 [Quin 9, 1-cyclopropyl-7-(4-decylpiperazin-1-yl)-6-fluoro-4-oxo-1,4-dihydroquinoline-3-carboxylic acid] | – | ≥4.8 | – | – | – | – | – | ≥4.8 | – | – | – |
| CCCCCCCCCN1CCN(c2c(F)cc3c(=O)c(C(=O)O)cn(C4CC4)c3c2OC)CC1 [Compound 17, 1-cyclopropyl-6-fluoro-8-methoxy-7-(4-nonylpiperazin-1-yl)-4-oxo-1,4-dihydroquinoline-3-carboxylic acid] | < 0.12 | – | 2 (≈ 0.975 µg/mL) | 0.5 (≈ 0.244 µg/mL) | < 0.12 | – | 1 (≈ 0.488 µg/mL) | – | 2 (≈ 0.975 µg/mL) | – | – |
| CCCCCCCCCCCCCCCCN1CCN(c2c(F)cc3c(=O)c(C(=O)O)cn(C4CC4)c3c2OC)CC1 [Quin 20, 1-cyclopropyl-6-fluoro-7-(4-hexadecylpiperazin-1-yl)-8-methoxy-4-oxo-1,4-dihydroquinoline-3-carboxylic acid] | – | 13.7 (≈ 8.03 µg/mL) | – | – | – | – | – | >13.7 | – | – | – |
| CCCCCCCCCCCCN1CCN(c2c(F)cc3c(=O)c(C(=O)O)cn(C4CC4)c3c2OC)CC1 [Compound 20, 1-cyclopropyl-7-(4-dodecylpiperazin-1-yl)-6-fluoro-8-methoxy-4-oxo-1,4-dihydroquinoline-3-carboxylic acid] | 0.47 (≈ 0.249 µg/mL) | – | 1.9 (≈ 1.01 µg/mL) | 0.23 (≈ 0.122 µg/mL) | 0.47 (≈ 0.249 µg/mL) | – | 0.47 (≈ 0.249 µg/mL) | – | 1.9 (≈ 1.01 µg/mL) | – | – |
| CCCCCCCN1CCN(c2c(F)cc3c(=O)c(C(=O)O)cn(C4CC4)c3c2OC)CC1 [Compound 15, 1-cyclopropyl-6-fluoro-7-(4-heptylpiperazin-1-yl)-8-methoxy-4-oxo-1,4-dihydroquinoline-3-carboxylic acid] | 1 (≈ 0.46 µg/mL) | – | 2.2 (≈ 1.01 µg/mL) | 2.2 (≈ 1.01 µg/mL) | 1 (≈ 0.46 µg/mL) | – | 1 (≈ 0.46 µg/mL) | – | 0.5 (≈ 0.23 µg/mL) | – | – |
| CCCCCCCCCCCN1CCN(c2c(F)cc3c(=O)c(C(=O)O)cn(C4CC4)c3c2OC)CC1 [Compound 19, 1-cyclopropyl-6-fluoro-8-methoxy-4-oxo-7-(4-undecylpiperazin-1-yl)-1,4-dihydroquinoline-3-carboxylic acid] | 0.5 (≈ 0.258 µg/mL) | – | 10 (≈ 5.16 µg/mL) | 2 (≈ 1.03 µg/mL) | 0.12 (≈ 0.0619 µg/mL) | – | 0.5 (≈ 0.258 µg/mL) | – | 10 (≈ 5.16 µg/mL) | – | – |
| O=C(O)c1cn(C2CC2)c2cc(N3CCNCC3)c(F)cc2c1=O [Ciprofloxacin, ciprofloxacin, reference compound] | – | ≥24 | – | – | – | – | – | ≥24 | – | – | – |
| CCCCCCCCN1CCN(c2cc3c(cc2F)c(=O)c(C(=O)O)cn3C2CC2)CC1 [Quin 16, 1-cyclopropyl-6-fluoro-7-(4-octylpiperazin-1-yl)-4-oxo-1,4-dihydroquinoline-3-carboxylic acid] | – | 6.7 (≈ 2.97 µg/mL) | – | – | – | – | – | 13.5 (≈ 5.99 µg/mL) | – | – | – |
| CCCCCCCCCCN1CCN(c2c(F)cc3c(=O)c(C(=O)O)cn(C4CC4)c3c2OC)CC1 [Quin 19, 1-cyclopropyl-7-(4-decylpiperazin-1-yl)-6-fluoro-8-methoxy-4-oxo-1,4-dihydroquinoline-3-carboxylic acid] | < 0.12 | 0.5 (≈ 0.251 µg/mL) | 1 (≈ 0.502 µg/mL) | 0.5 (≈ 0.251 µg/mL) | < 0.12 | high antibacterial activity | 0.5 (≈ 0.251 µg/mL) | 1 (≈ 0.502 µg/mL) | 2 (≈ 1 µg/mL) | – | – |
| COc1c(N2CCNC(C)C2)c(F)cc2c(=O)c(C(=O)O)cn(C3CC3)c12 (stereo not drawn) [Gatifloxacin, gatifloxacin] | – | – | – | – | – | – | – | – | – | 5.33 (≈ 2 µg/mL) | 2.66 (≈ 0.999 µg/mL) |
| CCCCCN1CCN(c2c(F)cc3c(=O)c(C(=O)O)cn(C4CC4)c3c2OC)CC1 [Quin 17, 1-cyclopropyl-6-fluoro-8-methoxy-4-oxo-7-(4-pentylpiperazin-1-yl)-1,4-dihydroquinoline-3-carboxylic acid] | – | 18.5 (≈ 7.98 µg/mL) | – | – | – | – | – | >18.5 | – | – | – |
